According to article PMC5955586, “Transport of enniatin B and enniatin B1 across the blood-brain barrier and hints for neurotoxic effects in cerebral cells” (PLoS ONE, 2018):
Values joined by “and” are separate entries in the source; they are usually repeats but may differ in a detail not shown here. Equal entries are not always repeated.

Tests used:
[1] = Pig feeding study, plasma concentration; format: in vivo; conditions: worst case contamination 5.8 mg/kg ENN B, 18.3 mg/kg ENN B1
[2] = test system: PBCEC; experiment: Barrier integrity of PBCEC (TEER and capacitance CCl); format: cell-based, porcine; conditions: for barrier impairing effect: 200 nM; for effect on TEER value / effect on monolayer confluency (capacitance CCl): 1 μM, 48 h
Method: (§1) Before starting each experiment, the TEER values and the electrical capacitance of all cell layers were measured via cellular impedance spectroscopy (cellZscope®, nanoAnalytics, Münster, Germany). […] TEER values relate to the constitution of the tight junctions limiting paracellular transfer of compounds. In addition to the TEER, electrical capacitances (CCl) were monitored for 48 h. Cellular phospholipid bilayers act like an electrical capacitor and also contribute to the cellular impedance. Changes of the CCl value give information about the integrity of the cell monolayer. In this experiment, a parallel set up was applied. For each treatment, one triplicate of filters was monitored via cellular impedance spectroscopy over the course of 48 h using a cellZscope® device–here, the basolateral compartment was prepared with 1650 μL serum free medium and the volume in the apical compartment was filled to 760 μL (ratio 1:2.17). Another triplicate for the same incubation conditions was kept in Transwell® filter cell culture multiple well plates (12 well format) over the course of 48 h. In the multiple well plates the ratio between the apical and the basolateral compartment was 1:3, therefore the starting volume in the apical compartment is 500 μL and 1500 μL in the basolateral compartment. Here, samples for quantitation of transfer of enniatins across the barrier were drawn after 1, 2.5, 6.5, 18, 24, 28, 42 and 48 hours in this given ratio i.e. 30 μL apical and 90 μL basolateral. After 48 h, the final TEER values of the filters from the multiple well plate were measured to ensure the stability of the cell layer throughout the experiment. To double check the integrity of the barrier, lucifer yellow (LY, 50 μM), as a paracellular transfer marker, was applied. The amount of LY found in the basolateral compartment after 1 h was measured at λex = 430 nm and λ em = 540 nm.

[3] = test system: HBMEC; experiment: CCK-8 viability assay in HBMEC; format: cell-based, human; conditions: 0.1 μM to 10 μM, 48 h
Method: To test the viability and to define the working range for later transport studies ENN B/ENN B1 stock solutions in ACN were diluted to the respective concentrations with serum free culture medium (1% ACN). An astrocytoma cell line, CCF-STTG1 (ATCC, Manassas, USA), and HBMEC cell line (human brain microvascular endothelial cells, kindly provided by Prof. Dr. Karch, Institute of Hygiene, University of Muenster (WWU Muenster)) were cultivated in RPMI 1640 medium supplemented with 100 U/mL penicillin, 100 μg/mL streptomycin, 2 mM L-glutamine and 10% (v/v) fetal calf serum (FCS) (medium for HBMEC additionally supplemented with 1 mM Na-pyruvate) using standardized culture conditions (37°C, 5% CO2, saturated humidified atmosphere). Culture medium was changed every 2–3 d, and the cells were subcultivated after trypsination when they reached a microscopic confluence of approximately 80%. […]
Briefly, the cells were seeded in 96-well tissue culture plates in a density of 1 × 10^4 cells/well (CCF-STTG1) and 4 × 10^3 cells/well (HBMEC), respectively. […] WST-8 dye is reduced to a water-soluble formazan by cellular dehydrogenases of viable cells, which increases the absorbance at λ = 457 nm and was measured with an Infinite M200 PRO microplate reader with Tecan i-control software version 1.7.1.12 (Tecan, Crailsheim, Germany). […]

[4] = Transfer across PBCEC monolayer on Transwell filters (BBB model); format: in vitro ADME, porcine; conditions: pig; apical to basolateral, 1 μM apical application (passive transport); read-out: Permeability coefficient
Method: (§2) In accordance with the thawing and seeding procedure for PBCEC, described for the viability test, 500 μL PBCEC suspension (2.5 × 10^5 cells/well) in culture medium were seeded on rat tail collagen coated 12-well Transwell® microporous polycarbonate filter inserts (Corning, Wiesbaden, Germany; growth area 1.12 cm^2, pore size 0.4 μm) in the upper (apical) compartment of the filter system. The lower (basolateral) compartment was filled with 1500 μL complete medium. This two-compartment system was used as model system for the BBB with the apical compartment reflecting the “blood”-side and the basolateral compartment serving as the “brain”-side. After 48 h, the complete medium was replaced by serum free medium. Additionally, 550 nM hydrocortisone (Sigma-Aldrich, Steinheim, Germany) was supplemented to urge differentiation of cells. After another 48 h, experiments studying barrier integrity and permeability were performed.
as §1
(§3) After the completion of the experiment, the polycarbonate filter membranes were extracted. The filters were cut out and extracted with ACN/H2O (8+2, v/v) via ultrasonication for 1 h. The extract was evaporated (vacuum concentrator BA-VC-200 H, Bachofer GmbH + Co KG, Reutlingen, Germany) and reconstituted in 200 μL of ACN/H2O (8+2, v/v). The obtained samples and filter extracts were analyzed and quantitated with high performance liquid chromatography-tandem mass spectrometry (HPLC-MS/MS).
(§4) The quantitation of ENN B and ENN B1 by HPLC-MS/MS was carried out using an 1100 series (Agilent Technologies, Santa Clara, USA) high performance liquid chromatography (HPLC) system and API 3200 (AB SCIEX Germany GmbH, Darmstadt, Germany) mass spectrometer. Both devices were operated with Analyst Version 1.6.2 software (AB SCIEX Germany GmbH, Darmstadt, Germany). A Synergi 4 μm Fusion-RP 80 Å 50 × 2.0 mm (Phenomenex) equipped with a Synergy 4 μm Fusion-RP 4 × 2.0 mm (Phenomenex) precolumn was used and maintained at 40°C. A binary gradient consisting of ACN (A) and water (B) (both containing 0.1% formic acid) was applied. […]

[5] = test system: PBCEC monolayer; experiment: as above; format: in vitro ADME, porcine; conditions: for active transport: 200 nM equimolar on both sides; for amount of apically applied compound found in basolateral compartment: after 6.5 h; for amount in filter membrane with attached PBCEC relative to applied amount: extraction after 48 h
Method: as §2, §1, §3, §4

[6] = design: method as in PMID 23598119; conditions: oral intake 0.05 mg/kg b.w.; cited from earlier work

Row | Compound | theoretical plasma levels [1] | barrier impairing effect [2] | effect on TEER value [2] | effect on monolayer confluency (capacitance CCl) [2] | effect on viability compared to solvent control [3] | Papp A→B at 1 μM [4] [×10⁻⁶ cm/s] | active transport [5] | plateau of amount in basolateral compartment ([5]; 1 μM (0.5 nmol) apical) [%] | amount of apically applied compound found in basolateral compartment ([5]; 1 μM (0.5 nmol) apical) [%] | amount in filter membrane with attached PBCEC relative to applied amount [5] | concentration in pig plasma [6] | amount transferred to basolateral compartment ([5]; 1 μM (0.5 nmol) apical, 6.5 h to 48 h)
1 | CC(C)[C@H]1C(=O)O[C@H](C(C)C)C(=O)N(C)[C@@H](C(C)C)C(=O)O[C@H](C(C)C)C(=O)N(C)[C@@H](C(C)C)C(=O)O[C@H](C(C)C)C(=O)N1C [ENN B, enniatin B] | 0.423 μg/mL and 0.662 μM | did not have any barrier impairing effect | does not lead to a breakdown of the TEER value | does not impair PBCEC confluency | no effect on viability | 14.9 | minor enrichment in the apical compartment | 70 ± 4 | 53 | below 1% | 0.073 μg/mL and 0.114 μM | –
2 | CC[C@H](C)[C@H]1C(=O)O[C@H](C(C)C)C(=O)N(C)[C@@H](C(C)C)C(=O)O[C@H](C(C)C)C(=O)N(C)[C@@H](C(C)C)C(=O)O[C@H](C(C)C)C(=O)N1C [ENN B1, enniatin B1] | 0.641 μg/mL and 0.980 μM | did not have any barrier impairing effect | does not lead to a breakdown of the TEER value | does not impair PBCEC confluency | no effect on viability | 14.6 | minor enrichment in the apical compartment | – | 44 | 2.7% | 0.035 μg/mL and 0.054 μM | up to 55%
